Data from patent US12616688B2, “Cell glycocalyx protection effect of anisodamine” (priority 2020, dated 2026).

Tests used:
Assay type in all cases: cell-based, human
hCMEC/D3 cell [1] = experiment: NO production assay
Protocol: 4.1 Experimental Groups: Which were the Same as in Example 2.
A cell was pre-cooled with PBS, then ultrasonically disrupted and homogenized, and centrifuged at 16,000 g and 4° C. for 20 min, a resulting supernatant was collected, and a NO detection kit (Nanjing Jiancheng Institute of Biological Engineering A012) was used to determine the absorbance at 550 nm, thereby determining an NO level.

hCMEC/D3 cell [2] = experiment: CCK-8 cell proliferation assay; conditions: under 50 μg/mL LPS, 24 h
Protocol: Immortalized HBMVEC hCMEC/D3 was taken from the Beijing Beina Chuanglian Biotechnology Institute (BNBIO) in China. The hCMEC/D3 endothelial cell was cultivated with an endothelial cell culture medium (ECM; cat.1001, Sciencell, USA) at 37° C. and 5% CO2. Anisodamine hydrobromide was taken from the Chengdu First Pharmaceutical Co., Ltd., Chengdu, China. Anisodamine hydrobromide was dissolved in distilled water at 20 mg/mL, then a resulting solution was filtered through a 0.22 μm filter membrane, and anisodamine hydrobromide solutions with final concentrations of 10 μg/mL, 20 μg/mL, 40 μg/mL, and 80 μg/mL each were prepared with ECM. LPS was dissolved in distilled water at 2 mg/mL, and LPS solutions with concentrations of 1 μg/mL, 10 μg/mL, 20 μg/mL, 50 μg/mL, and 100 μg/mL each were prepared with ECM. The hCMEC/D3 cell was treated with LPS and anisodamine hydrobromide.
The cell proliferation was assayed by the CCK-8 method (C0042, Beyotime, China). 2,000 cells were inoculated into a 96-well plate, cultivated for 24 h, and then treated with LPS and anisodamine hydrobromide; and before the end of the experiment, a CCK8 assay solution was added, the plate was incubated for 1 h, and then the absorbance at 450 nm was determined by a microplate reader (Labsery K3 Touch, Thermo Fisher, USA).

hCMEC/D3 barrier = experiment: Endothelial permeability assay (Transwell, FITC-dextran leakage); conditions: for LPS-induced permeability relative to control group: 24 h
Protocol: 3.1 Experimental Groups: Which were the Same as in Example 2.
A cell (5×10^4 in 200 μL ECM) was inoculated into an upper well of Transwell (0.4 μm, Corning, USA), and 200 μL of ECM was added to a lower well; the Transwell was incubated for 3 d in a 37° C. and 5% CO2 incubator until a cell confluency was 90%; a medium in the upper well was replaced with 50 μg/mL LPS or anisodamine hydrobromide (10 μg/mL or 20 μg/mL)-free fresh ECM, and a medium in the lower well was replaced with fresh ECM; 24 h later, 10 μL of fluorescein isothiocyanate (FITC)-dextran (40 kDa; Cat. 46944, Sigma-Aldrich, USA) was added to the upper well; 40 min later, 100 μL of a medium was taken from the lower well, and fluorescence values at 490 nm and 525 nm were determined; and a leakage amount of FITC-dextran was calculated to assess the permeability of an endothelial cell layer.

[3] = tested on: glycocalyx HS and cadherin of hCMEC/D3 cell; experiment: Immunofluorescence staining and confocal microscopy of HS and cadherin
Protocol: 2.1 Experimental Groups: Normal Control Group, LPS Treatment Group (50 μg/mL), Low-Concentration Administration Group (LPS 50 μg/mL+Anisodamine Hydrobromide 10 μg/mL), and High-Concentration Administration Group (LPS 50 μg/mL+Anisodamine Hydrobromide 20 μg/mL). 2.2 Immunofluorescence Staining and Confocal Microscopy
A cell was fixed and penetrated, then blocked with 2% goat serum, and labeled with a murine HS monoclonal antibody (mAb) (1:100, 10E4 epitope, AMS Biotechnology, UK), a rabbit cadherin polyclonal antibody (pAb) (1:100, A0734, Abclonal, China), an Alexa Fluor 488 goat anti-murine (1:400, A11001, Thermo Fisher) secondary antibody, and an Alexa Fluor 568 donkey anti-rabbit (1:400, A10042, Thermo Fisher) secondary antibody. The cell nucleus was labeled with DAPI. Mounting was conducted, and then the cell was detected under a confocal microscope at LSM710.

[4] = LPS 50 μg/mL + anisodamine hydrobromide 10 μg/mL
[5] = LPS 50 μg/mL + anisodamine hydrobromide 20 μg/mL
[6] = LPS 50 μg/mL + anisodamine hydrobromide 10 or 20 μg/mL

Br.CN1[C@H]2C[C@H](OC(=O)[C@H](CO)c3ccccc3)C[C@@H]1[C@@H](O)C2 [anisodamine hydrobromide, Anisodamine hydrobromide]
LPS-induced NO production relative to control group (hCMEC/D3 cell [1]; [4]): 1.2 times | LPS-induced NO level (hCMEC/D3 cell [1]; LPS 50 μg/mL + anisodamine hydrobromide 10 μg/mL (second mention)): significantly reduced the LPS-induced NO level | cell proliferation (hCMEC/D3 cell [2]; anisodamine hydrobromide 20 μg/mL): significantly increased the cell proliferation | cell proliferation (hCMEC/D3 cell [2]; anisodamine hydrobromide 20 μg/mL, listed as anisodamine): significantly improve the proliferation | cell proliferation (hCMEC/D3 cell [2]; anisodamine hydrobromide 80 μg/mL): significantly down-regulated the cell proliferation | cell proliferation (hCMEC/D3 cell [2]; anisodamine hydrobromide 80 μg/mL, listed as anisodamine): significantly inhibit the proliferation | LPS-induced permeability relative to control group (hCMEC/D3 barrier; [4]): 2.7 times | LPS-induced permeability relative to control group (hCMEC/D3 barrier; [5]): 2.6 times | permeability, anisodamine hydrobromide group vs control group (hCMEC/D3 barrier; [6]): no significant difference | loss of cadherin and HS [3, 4]: inhibit the loss of cadherin and HS | loss of cadherin and HS [3, 5]: inhibit the loss of cadherin and HS | integrity and width of a cell junction [3, 6]: restored the integrity and width of a cell junction | cadherin level and HS coverage rate ([3]; compared with the control group and the 10 μg/mL anisodamine hydrobromide group (group not named, apparently 20 μg/mL)): increased slightly, but not significantly
